Columns and labels:
Galectin-1 = Galectin-1 (Homo sapiens, UniProt P09382); assay: Inhibitory Activity Assay
Description: (§1) Briefly, compounds are serially diluted in DMSO (working dilutions). ASF-coated 384well plates are supplemented with 22.8 μL/well of biotinylated hGal-3 or hGal-1 in assay buffer (i.e. 300-1000 ng/mL biotinylated hGal-3 or hGal-1) to which 1.2 μL of compound working dilutions are added and mixed. Plates are incubated for 3 hours at 4° C., then washed with cold assay buffer (3×50 uL), incubated for 1 hour with 25 μL/well of a streptavidin-peroxidase solution (diluted in assay buffer to 80 ng/mL) at 4° C., followed by further washing steps with assay buffer (3×50 uL). Finally, 25 μL/well of ABTS substrate is added.

Galectin-3 = Galectin-3 (Homo sapiens, UniProt P17931); assay: Inhibitory Activity Assay
Sequence of Galectin-3 (P17931 whole entry): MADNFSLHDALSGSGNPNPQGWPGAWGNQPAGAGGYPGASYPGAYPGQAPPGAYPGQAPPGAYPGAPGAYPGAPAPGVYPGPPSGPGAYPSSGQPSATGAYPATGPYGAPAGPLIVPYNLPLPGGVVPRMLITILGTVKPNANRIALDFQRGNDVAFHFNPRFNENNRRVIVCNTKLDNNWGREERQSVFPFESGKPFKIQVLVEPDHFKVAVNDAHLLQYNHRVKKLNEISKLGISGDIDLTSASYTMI
Description: as §1

Sequence of Galectin-1 (P09382 whole entry): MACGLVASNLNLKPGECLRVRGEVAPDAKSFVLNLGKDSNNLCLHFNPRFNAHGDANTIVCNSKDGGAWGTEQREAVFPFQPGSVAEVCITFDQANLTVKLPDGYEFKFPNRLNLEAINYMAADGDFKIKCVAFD

Structure (SMILES) | IC50 (Galectin-1) [nM] | IC50 (Galectin-3) [nM]
COC(=O)C(C)(C)n1cc(C[C@H]2OC(CO)=C(O)C(N3C[C@H](c4ccc(C)c(F)c4F)NN3)=C2OC)nn1 [US20240109930, Example 1.1.10.] | 4370 | 60
COC(=O)C(C)(C)n1cc(C[C@H]2OC(CO)=C(O)C(N3C[C@H](c4ccc(Cl)c(F)c4F)NN3)=C2OC)nn1 [US20240109930, Example 2.1.10.] | 2260 | 60
CO[C@@H]1[C@@H](n2cc(-c3ccc(Cl)c(F)c3F)nn2)[C@@H](O)[C@@H](CO)O[C@@H]1Cc1cn(C2COCCC2(F)F)nn1 (some centres undefined) [US20240109930, Example 2.1.73.A] |  | 30
CO[C@@H]1[C@@H](n2cc(-c3ccc(Cl)c(F)c3F)nn2)[C@@H](O)[C@@H](CO)O[C@@H]1Cc1cn([C@@H]2CC[C@H]2F)nn1 [US20240109930, Example 2.1.88.C] |  | 50
CCC1(c2cn(C[C@H]3O[C@H](CO)[C@H](O)[C@H](n4cc(-c5ccc(Cl)c(F)c5F)nn4)[C@H]3OC)nn2)COC1 [US20240109930, Example 2.2.38.] | 1400 | 30
CO[C@@H]1[C@@H](n2cc(-c3ccc(Cl)c(F)c3F)nn2)[C@@H](O)[C@@H](CO)O[C@@H]1Cn1cc(C2(CF)CC2)nn1 [US20240109930, Example 2.2.46.] | 2300 | 60
CO[C@@H]1[C@@H](n2cc(-c3ccc(Cl)c(F)c3F)nn2)[C@@H](O)[C@@H](CO)O[C@@H]1Cn1cc([C@H]2C[C@@H](NC(=O)OC(C)(C)C)C2)nn1 [US20240109930, Example 2.2.86.] | 2570 | 60
COC1=C(n2cc(-c3ccc(C#N)c(F)c3F)nn2)C(O)=C(CO)O[C@@H]1C[C@H]1CN(C2(C(F)F)CCC2)NN1 [US20240109930, Example 5.1.43.] | 1320 | 30
